Data on six compounds can be found in patent publication US12263248B2, “Compounds and compositions for intracellular delivery of therapeutic agents” (ModernaTX, Inc., priority 2018, dated 2025).

Data set [1] can be described thus: Particle size and polydispersity index of nanoparticle compositions (Zetasizer Nano ZS). Format: physicochemical. The essentials:
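Values are size and PDI readings from a Zetasizer Nano ZS. Measurements are taken in 1×PBS; zeta potential, by contrast, uses 15 mM PBS.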

Data set [2] has as its system luciferase (Luc) mRNA. The data set is described as follows: Luc expression, whole body bioluminescence after intravenous administration to mice. Format: in vivo. The following applies: for Fold increase in total body Luc Flux relative to MC3 at 6 h: Table 3A, i.v. administration; for Total Flux 3 hours / Total Flux 6 hours / Total Flux 24 hours: i.v., 0.5 mg/kg, Luc mRNA. The essentials: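 Bioluminescence, read as region-of-interest total flux at 3, 6 and 24 h, followed a single 0.5 mg/kg intravenous dose of Luc mRNA-loaded nanoparticles in mice (n=6). Luciferin substrate (200 μL, 15 mg/mL in PBS) was injected intraperitoneally into CD-1 mice 15 minutes ahead of each imaging point.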

The test system of data set [3] is IL-6, IP-10. The data set is described as follows: Cytokine induction in mice upon intravenous administration. Particulars: 0.5 mpk, 6 hours; for IL-6 induction / IP-10 induction: i.v., in words; for Cytokine induction IL-6 / Cytokine induction IP-10: intravenous. Set-up: Cytokine induction IL-6 / Cytokine induction IP-10: unit not given here. In kind it is in vivo. The essentials: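 IL-6 and IP-10 concentrations determined 6 hours after a single intravenous 0.5 mpk dose of lipid nanoparticle formulation in mice, with MC3 and PBS as comparators.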

The subject of data set [4] is luciferase (Luc) mRNA. The data set is described as follows: Luc expression (total flux) after intramuscular administration. Format: in vivo, mice. Particulars: for Total flux, 0.001 mpk Dose / Total flux, 0.01 mpk Dose: 6 hours after intramuscular administration, Luc mRNA and H10 mRNA. The essentials:
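Total-flux luciferase signal in mice after one intramuscular injection. Nanoparticle formulations contained modified Luc mRNA, either alone or co-dosed with H10 mRNA (e.g., 0.0005 or 0.005 mpk of each), giving 0.001 or 0.01 mpk.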

Data set [5] deals with luciferase (Luc) mRNA. The data set is described as follows: Luc expression in liver, lung, spleen and femur 6 hours after intravenous administration. Format: in vivo. Particulars: mice, 0.5 mpk; for Total Flux Femur / Total Flux Liver / Total Flux Lung / Total Flux Spleen: intravenous. The essentials:
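LNP-formulated mRNA given IV to mice (n=3) at 0.5 mpk; at 6 h, bioluminescence imaged ex vivo 15 min after IP D-luciferin (15 mg/mL, 200 μL), organs imaged within 25 min. Values are total flux by region of interest.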

[6] abbreviates: Table 1A, lipid:DSPC:cholesterol:PEG-DMG 50:10:38.5:1.5 mol %.
[7] abbreviates: Table 1B, formulated with hEPO mRNA.
[8] abbreviates: Table 1D, for subcutaneous administration, # formulated with hEPO mRNA.
Where [9] appears, read: nanoparticle composition with mRNA encoding anti-HA antibody (Table 33).
Where [10] appears, read: nanoparticle of rat tolerability study (Table 43).
[11] abbreviates: Table 1E, compositions for subcutaneous administration.

For the compound `CCCCCCCCCN(CCO)CCCCCCCC(=O)OC(CCCCCCCC)CCCCCCCC` [Compound 3, Heptadecan-9-yl 8-((2-hydroxyethyl)(nonyl)amino)octanoate], the PDI in data set [1] (Table 1A) stood at 0.20. Further, the “Size (nm)” value in data set [1] (setting [6]) was 97.5 nm. In data set [2], the “Fold increase in total body Luc Flux relative to MC3 at 6 h” value amounted to 2.24. Besides, in data set [2] (intravenous), the “Fold increase in Luc expression relative to MC3, Intravenous (0.5 mpk dose)” value came to 2.24. In data set [2] (mice), the “Total Flux 3 hours” value amounted to 6.55E+10, the “Total Flux 6 hours” value is given as 7.37E+10 and the “Total Flux 24 hours” value came out at 4.96E+09. For the same compound, in data set [3], the IL-6 induction result is “highest”, the IP-10 induction result is “highest”, the “Cytokine induction IL-6” value was determined as 282.88 and the “Cytokine induction IP-10” value is given as 2052.87. In data set [4] (0.001 mpk), the “Total flux, 0.001 mpk Dose” value is on record as 3.58E+06 p/s. In addition, the “Total flux, 0.01 mpk Dose” value in data set [4] worked out at 4.95E+07 p/s. In addition, in data set [4] (intramuscular, 0.001 mpk), the “Fold increase in Luc expression relative to MC3, Intramuscular (0.001 mpk dose)” value is reported as 0.51. Moreover, the “Fold increase in Luc expression relative to MC3, Intramuscular (0.01 mpk dose)” value in data set [4] (intramuscular) was 1.13. Moreover, the “Flux in the liver” value in data set [5] (i.v., in words) was “highest”. In addition, in data set [5], the “Total Flux Femur” value stood at 7.36E+06, the “Total Flux Liver” value is recorded as 1.39E+10, the “Total Flux Lung” value amounted to 4.76E+07 and the “Total Flux Spleen” value is 1.47E+08.

In the case of `CCCCCCCCC(CCCCCCCC)OC(=O)CCCCCCCN(CCO)CCCCCC` [Compound 5, Heptadecan-9-yl 8-(hexyl(2-hydroxyethyl)amino)octanoate], the PDI in data set [1] (Table 1A) was found to be 0.21. Further, the “Size (nm)” value in data set [1] (setting [6]) was 196.4 nm. The “Fold increase in total body Luc Flux relative to MC3 at 6 h” value in data set [2] is listed as 0.005. Besides, in data set [2] (mice), the “Total Flux 3 hours” value was found to be 2.77E+08, the “Total Flux 6 hours” value came to 1.76E+08 and the “Total Flux 24 hours” value was 2.40E+07. For the same compound, in data set [3], the “Cytokine induction IL-6” value turned out to be 94.07 and the “Cytokine induction IP-10” value is given as 487.16. The “Total flux, 0.001 mpk Dose” value in data set [4] (0.001 mpk) was 9.84E+05 p/s. Further, in data set [4], the “Total flux, 0.01 mpk Dose” value was found to be 3.55E+06 p/s. In data set [5], the “Total Flux Femur” value is 1.22E+06, the “Total Flux Liver” value is 5.84E+07, the “Total Flux Lung” value is recorded as 1.89E+06 and the “Total Flux Spleen” value worked out at 1.55E+08.

Take `CCCCCCCCCN(CCCO)CCCCCCCC(=O)OC(CCCCCCCC)CCCCCCCC` [Compound 7, Heptadecan-9-yl 8-((3-hydroxypropyl)(nonyl)amino)octanoate]: in data set [1] (Table 1A), the PDI came out at 0.22. In data set [1] (setting [6]), the “Size (nm)” value came out at 118.9 nm. For the same compound, in data set [2] (mice), the “Total Flux 3 hours” value is recorded as 4.13E+10, the “Total Flux 6 hours” value is on record as 4.03E+10 and the “Total Flux 24 hours” value came to 1.68E+09. In data set [3], the IP-10 induction result is on record as “highest”, the “Cytokine induction IL-6” value turned out to be 116.35 and the “Cytokine induction IP-10” value was 4959.16. Also, the “Total flux, 0.001 mpk Dose” value in data set [4] (0.001 mpk) is 3.65E+06 p/s. In addition, in data set [4], the “Total flux, 0.01 mpk Dose” value is 7.48E+07 p/s. Also, the “Flux in the spleen” value in data set [5] (i.v., in words) was “highest”. Moreover, in data set [5], the “Total Flux Liver” value was determined as 2.49E+09, the “Total Flux Lung” value amounted to 3.95E+07 and the “Total Flux Spleen” value is 4.83E+08.

In the case of `CCCCCCCCCOC(=O)CCCCCCCN(CCCCCCCC(=O)OC(CCCCCCCC)CCCCCCCC)C[C@H](C)O` [Compound 12, Heptadecan-9-yl (S)-8-((2-hydroxypropyl)(8-(nonyloxy)-8-oxooctyl)amino)octanoate], the PDI in data set [1] (Table 1A) stood at 0.17. The “Size (nm)” value in data set [1] (setting [6]) stood at 116.7 nm. Further, in data set [2] (mice), the “Total Flux 3 hours” value was 5.14E+09, the “Total Flux 6 hours” value worked out at 1.27E+10 and the “Total Flux 24 hours” value turned out to be 2.45E+08. For the same compound, in data set [3], the IL-6 induction entry is “lowest”, the IP-10 induction result is listed as “lowest”, the “Cytokine induction IL-6” value is recorded as 3.88 and the “Cytokine induction IP-10” value is reported as 32.03. Further, the “Total flux, 0.001 mpk Dose” value in data set [4] (0.001 mpk) is 8.02E+04 p/s. Further, in data set [4], the “Total flux, 0.01 mpk Dose” value turned out to be 8.90E+05 p/s. In data set [5], the “Total Flux Liver” value is 6.84E+08, the “Total Flux Lung” value turned out to be 7.45E+06 and the “Total Flux Spleen” value was 6.82E+07.

Regarding `CCCCCCCCCOC(=O)CCCCCCCN(CCO)CCCCCCCC(=O)OC(CCCCCCCC)CCCCCCCC` [Compound 18, Heptadecan-9-yl 8-((2-hydroxyethyl)(8-(nonyloxy)-8-oxooctyl)amino)octanoate], in data set [1] (Table 1A), the PDI came to 018. In addition, the “Size (nm)” value in data set [1] (setting [6]) is reported as 87.9 nm. For the same compound, in data set [1] (setting [7]), the PDI was 0.14 and the “Size (nm)” value is 73.7 nm. Moreover, in data set [1] (setting [8]), the PDI is given as 0.11 and the “Size (nm)” value is on record as 75.0 nm. For the same compound, the “PDI (Polydispersity index)” value in data set [1] (lipid nanoparticle, ±SD within one assay run (Table 37)) stood at 0.04 ± 0.06. The PDI in data set [1] (lipid:DSPC:Chol:PEG-DMG (50:10:38.5:1.5), hEPO mRNA) amounted to 0.095. The compound also had a PDI in data set [1] (nanoparticle composition with hEPO mRNA (Table 30)) of 0.230. In data set [1] (setting [9]), the Diameter was 76.8 nm and the PDI is reported as 0.16. Also, in data set [1] (setting [10]), the Diameter came out at 80 nm and the PDI worked out at 0.19. In addition, the “Fold increase in total body Luc Flux relative to MC3 at 6 h” value in data set [2] is listed as 3.22. In addition, in data set [2] (intravenous administration, in words), the “fold increase in Luc expression over MC3 formulations” value was “highest fold increase”. In data set [2] (intravenous), the “Fold increase in Luc expression relative to MC3, Intravenous (0.5 mpk dose)” value is on record as 3.23. Besides, in data set [2] (mice), the “Total Flux 3 hours” value came out at 1.71E+10, the “Total Flux 6 hours” value is given as 2.13E+10 and the “Total Flux 24 hours” value is listed as 2.51E+09. Moreover, the “luciferase activity relative to MC3 LNP control” value in data set [2] (mice, intravenous, 0.5 mg/kg (mRNA dose)) was 3 fold. Also, in data set [2] (mice, intravenous, 6 h), the “Average total flux (6 h, ffluc)” value is 2.13 × 10^10 and the “Fold increase in average total flux relative to MC3” value is recorded as 3.23. Also, in data set [3], the IP-10 induction entry was “lowest”, the “Cytokine induction IL-6” value was 78.76 and the “Cytokine induction IP-10” value turned out to be 139.92. Moreover, in data set [4], the “Total flux, 0.01 mpk Dose” value is recorded as 8.84E+07 p/s. The “Fold increase in Luc expression relative to MC3, Intramuscular (0.01 mpk dose)” value in data set [4] (intramuscular) was 2.01. In addition, in data set [5], the “Total Flux Femur” value is 4.68E+06, the “Total Flux Liver” value came to 2.76E+09, the “Total Flux Lung” value is listed as 1.25E+07 and the “Total Flux Spleen” value turned out to be 5.15E+07.

In turn, `CCCCCCCCCOC(=O)CCCCCCCN(CCCO)CCCCCCCC(=O)OC(CCCCCCCC)CCCCCCCC` [Compound 19, Heptadecan-9-yl 8-((3-hydroxypropyl)(8-(nonyloxy)-8-oxooctyl)amino) octanoate] registered a PDI in data set [1] (Table 1A) of 0.17. Further, the “Size (nm)” value in data set [1] (setting [6]) was determined as 101.1 nm. Besides, in data set [1] (setting [11]), the PDI worked out at 0.13 and the “Size (nm)” value was found to be 80.7 nm. Moreover, in data set [2], the “Fold increase in total body Luc Flux relative to MC3 at 6 h” value turned out to be 0.96. Moreover, in data set [2] (mice), the “Total Flux 3 hours” value is 3.38E+10, the “Total Flux 6 hours” value came out at 3.56E+09 and the “Total Flux 24 hours” value was 4.68E+08. In data set [3], the IL-6 induction entry was “highest”, the “Cytokine induction IL-6” value worked out at 285.56 and the “Cytokine induction IP-10” value is given as 1468.94. Besides, the “Total flux, 0.001 mpk Dose” value in data set [4] (0.001 mpk) was 3.28E+06 p/s. The “Total flux, 0.01 mpk Dose” value in data set [4] is reported as 2.96E+07 p/s. Further, in data set [4] (intramuscular, relative to MC3 formulation), the “Novel lipid/MC3 expression ratio, 6 hr. time point, i.m. Luc” value is 3.68. Besides, in data set [5], the “Total Flux Femur” value is given as 1.68E+06, the “Total Flux Liver” value turned out to be 6.33E+08, the “Total Flux Lung” value stood at 5.99E+06 and the “Total Flux Spleen” value worked out at 1.77E+07.
